From patent US20020035138A1, “Activating Cl- secretion” (Southern Research Institute, priority 1997, published 2002)
Entries after “also recorded” stand apart in the source; their conditions may differ. Where two headings read alike, the source gives them in different places.

How the values were obtained:
CFPAC cells [1] = assay: Cell proliferation assay (Cell titer 96 kit); type: cell-based, human
Experimental: (§1) Proliferation was measured as in Hughes et al., Tumor specific killing with high bystander toxicity using the human tyrosinase promoter to express the E. coli PNP gene, Cancer Research 55: 3339-3345, 1995 and Parker et al., In vivo gene therapy of cancer with E. coli purine nucleoside phosphorylase, Human Gene Therapy, 1997 (in press) using a commercially available kit (Cell titer 96 kit, Promega) and carried out according to manufacturer's protocol. 20 μm 2931 activates Cl^− secretion in CF cells within 5 minutes. […] (FIG. 3A) cAMP levels were tested using the cAMP Immunoassay kit (Cayman) according to manufacturer's protocol.

CFPAC-1 cell monolayers = assay: Short circuit current (ISC) in CFPAC-1 cell monolayers, Ussing chamber; type: cell-based, human
Experimental: FIG 4. Cl^- secretion in CFPAC-1 cells. CFPAC-1 cell monolayers were grown to confluency on permeable supports (Millipore) for 10 days. Filters were mounted in an Ussing chamber, and short circuit current measurement was carried out as previously described ([…] and Dawson, Am. J. Physiol. 251:[…]-[…], 1986). […] The compounds were screened using different concentrations of drugs and adding them to alternate surfaces of the filters (mucosal; serosal; mucosal and serosal). The effects of forskolin (10 μM), UTP (100 μM) CPX (100 μm) and duramycin (5 μm) were also studied. […] Explants of CF nasal polyps (primary airway epithelial cells) and control, non-CF colonic epithelial cells (T84) containing wild-type CFTR were also studied. […] In other words, these experiments raise the possibility that Cl^- secretion effects of drugs such as adenosine, milrinone, IBMX, or forskolin might be increased by compounds employed in the present invention by a conjoint therapy treatment. […] The ISC occurs after mucosal, but not serosal addition of the compound.

CFPAC cells [2] = assay: Iodide efflux protocol in CFPAC cells; type: cell-based, human; conditions: for iodide (anion) efflux: CF pancreatic ductular cells (CFPAC), FIG. 1
Description: (§2) The iodide efflux protocol is a conventional test for the existence of anion permeability pathways, including both CFTR (cAMP-activated) and non-CFTR permeability pathways (e.g., Ca^2+-activated Cl^− transport). […] Ionomycin, a Ca^2+ ionophore, is known to activate non-CFTR-type anion efflux pathways in CFPAC cells by increasing intracellular Ca^2+.
(§3) Epithelial cells in the pancreatic ducts, lung, and colon secrete fluid and electrolytes into the pancreatic ductular lumen, airways and intestinal lumen, respectively. The inability to secrete anions in response to a cAMP-dependent agonist such as forskolin is a hallmark of the CF phenotype. […] Methods: Iodide efflux. Iodide efflux was performed as previously described (Venglarik et al., Am. J. Physiol. 259:C358-C364, 1990, and Drumm et al., Cell 62:1227-1233, 1990) Cells were grown on […] culture dishes, and effluxes were performed when the cells were 80-100% confluent using a phosphate buffered Ringer's solution. Cells were loaded with ^125I (2-5 μCi/ml) for 30 minutes and then washed with PBS to remove extracellular ^125I. Efflux was detected by measuring the radioactivity in the extracellular solution which was changed every 15 seconds. At specific points, compounds were added to the cells. Increases in the rate of efflux after addition of a compound indicates the activation of an anion permeability pathway.

[3] = test system: T84 colonic epithelial cells; assay: Short circuit current (ISC) in T84 colonic epithelial cell monolayers; type: cell-based, human; conditions: with 10 μM forskolin
Experimental: FIG 4. Cl^- secretion in CFPAC-1 cells. CFPAC-1 cell monolayers were grown to confluency on permeable supports (Millipore) for 10 days. Filters were mounted in an Ussing chamber, and short circuit current measurement was carried out as previously described ([…] and Dawson, Am. J. Physiol. 251:[…]-[…], 1986). Filters were bathed in Ringer's solution (in mM: 145 Na^+, 5 K^+, 124.8 Cl^-, 1.2 Ca^2+, 1.2 Mg^2+, 25 HCO3-, 4.2 PO4, 10 glucose; pH=7.4) on the serosal surface and in a 6 mM Cl^- Ringer's solution (118.8 mM of Cl^- was replaced by the impermeant anion gluconate) on the mucosal surface. The compounds were screened using different concentrations of drugs and adding them to alternate surfaces of the filters (mucosal; serosal; mucosal and serosal). The effects of forskolin (10 μM), UTP (100 μM) CPX (100 μm) and duramycin (5 μm) were also studied. […] Explants of CF nasal polyps (primary airway epithelial cells) and control, non-CF colonic epithelial cells (T84) containing wild-type CFTR were also studied. […] In other words, these experiments raise the possibility that Cl^- secretion effects of drugs such as adenosine, milrinone, IBMX, or forskolin might be increased by compounds employed in the present invention by a conjoint therapy treatment. […] The ISC occurs after mucosal, but not serosal addition of the compound.

[4] = test system: primary airway cells taken from a CF patient; assay: Iodide efflux protocol in primary airway cells taken from a CF patient; type: cell-based, human; conditions: FIG. 2
Experimental: as §3

cellular cAMP = assay: cAMP Immunoassay kit, cellular cAMP levels; type: cell-based, human; conditions: same conditions that stimulate anion transport, FIG. 3
Experimental: as §1

T84 cells = assay: Iodide efflux protocol in T84 colonic epithelial cells; type: cell-based, human; conditions: T84 cells expressing high levels of CFTR
Description: as §2, §3

mouse intestine = assay: ISC across mouse intestine (colon sections) in Ussing chambers
Experimental: Small sections of mouse colon from both wild-type and CF knockout mice were mounted in Ussing chambers, and ISC measurements were recorded as described above. Both mucosal and serosal surfaces were bathed in regular Ringer's solution, and TTX (1.54×10^−3 μM) was added to the serosal side of the tissue. After a steady-state had been obtained, amiloride (10^−4 M) was added to the mucosal surface. Both sides were then bathed with regular Ringer's. A Cl gradient was established by bathing the mucosal surface with a 6 mM Cl^− solution. 5-diazoimidazol-4-carboxylic acid n-octyl ester (100 μM) was added first to the mucosal and then the serosal surface of the mounted tissue (FIG. 9).

CF tissues = conditions: including transepithelial transport in vivo; cited from earlier work
ΔF508 CFTR = target: T1, ΔF508 CFTR (Homo sapiens, UniProt P13569, DEL508-508); conditions: cited from earlier work
T1 construct: host or cells: CFPAC and IB3-1 (endogenous mutant CFTR); NIH 3T3 (after expression of the ΔF508 protein)

[5] = 100 μM, serosal-mucosal Cl- gradient

T1 sequence (P13569 with tags, fused parts or gaps DEL508-508): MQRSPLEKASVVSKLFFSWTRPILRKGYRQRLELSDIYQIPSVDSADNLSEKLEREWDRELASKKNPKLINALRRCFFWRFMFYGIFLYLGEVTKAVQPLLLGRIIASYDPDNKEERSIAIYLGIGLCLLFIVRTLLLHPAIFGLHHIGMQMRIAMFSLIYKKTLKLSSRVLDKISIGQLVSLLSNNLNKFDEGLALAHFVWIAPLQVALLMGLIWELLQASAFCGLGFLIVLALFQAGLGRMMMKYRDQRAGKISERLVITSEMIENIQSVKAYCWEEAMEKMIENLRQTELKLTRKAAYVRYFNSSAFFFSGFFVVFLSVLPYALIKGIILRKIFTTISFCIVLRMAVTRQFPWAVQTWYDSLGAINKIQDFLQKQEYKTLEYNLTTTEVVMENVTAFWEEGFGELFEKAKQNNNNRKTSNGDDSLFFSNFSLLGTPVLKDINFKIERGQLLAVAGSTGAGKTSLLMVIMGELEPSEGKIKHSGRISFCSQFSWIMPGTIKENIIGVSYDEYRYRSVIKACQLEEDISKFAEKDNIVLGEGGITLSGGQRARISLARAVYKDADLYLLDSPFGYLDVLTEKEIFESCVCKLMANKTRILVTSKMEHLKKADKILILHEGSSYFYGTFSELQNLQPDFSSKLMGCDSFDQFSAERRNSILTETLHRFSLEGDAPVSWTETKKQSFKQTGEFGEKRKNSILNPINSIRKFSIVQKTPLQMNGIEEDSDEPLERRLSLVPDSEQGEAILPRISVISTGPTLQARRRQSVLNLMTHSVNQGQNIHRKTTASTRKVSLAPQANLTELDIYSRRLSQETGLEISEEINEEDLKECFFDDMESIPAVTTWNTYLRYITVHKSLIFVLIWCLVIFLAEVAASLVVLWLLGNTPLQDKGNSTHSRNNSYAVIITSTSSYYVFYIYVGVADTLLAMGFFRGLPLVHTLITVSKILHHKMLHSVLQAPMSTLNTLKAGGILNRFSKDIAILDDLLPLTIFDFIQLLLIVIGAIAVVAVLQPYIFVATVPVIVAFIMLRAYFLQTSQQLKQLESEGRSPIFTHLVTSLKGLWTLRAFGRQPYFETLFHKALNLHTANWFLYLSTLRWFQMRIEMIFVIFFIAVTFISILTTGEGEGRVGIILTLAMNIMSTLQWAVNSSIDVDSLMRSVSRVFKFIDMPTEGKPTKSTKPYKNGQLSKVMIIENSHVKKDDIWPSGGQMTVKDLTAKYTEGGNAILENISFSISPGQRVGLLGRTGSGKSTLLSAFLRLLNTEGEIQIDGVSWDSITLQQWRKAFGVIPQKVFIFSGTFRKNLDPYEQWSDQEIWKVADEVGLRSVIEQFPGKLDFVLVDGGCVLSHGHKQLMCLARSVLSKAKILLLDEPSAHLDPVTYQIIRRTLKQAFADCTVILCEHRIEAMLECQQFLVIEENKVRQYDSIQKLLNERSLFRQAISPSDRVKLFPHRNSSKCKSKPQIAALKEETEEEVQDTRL

CCCCCCCCOC(=O)C1=NC=NC1=[N+]=[N-] [5-diazoimidazol-4-carboxylic acid n-octyl ester]
proliferation of cells (CFPAC cells [1]; at concentrations that activate anion efflux, FIG. 3A): allows proliferation of cells
effects on cellular proliferation (CFPAC cells [1]; cells grown for 7 days at 20 μm): minimal effects on cellular proliferation
induced ISC in presence of BAPTA AM (CFPAC-1 cell monolayers; BAPTA AM 100 μM, FIG. 7): had no effect
potency and duration of effects relative to UTP and CPX (CFPAC-1 cell monolayers; CFPAC cells): more potent and prolonged effects
direction of ISC (CFPAC-1 cell monolayers; Cl- gradient reversed (mucosal-to-serosal)): could be reversed
ISC response (CFPAC-1 cell monolayers; Cl- omitted from mucosal and serosal bathing solutions): much less pronounced
ISC effect in presence of acetazolimide (CFPAC-1 cell monolayers; acetazolimide 100 μM): did not inhibit the effect
ISC response (CFPAC-1 cell monolayers; added to apical (mucosal) surface, serosal-to-mucosal Cl- gradient): strong ISC response
ISC response (CFPAC-1 cell monolayers; added to basolateral (serosal) surface): not basolateral
ISC response in presence of amiloride (CFPAC-1 cell monolayers; amiloride 10 μM on apical surface): did not alter this response
duration of activity (CFPAC-1 cell monolayers; compared with UTP, CPX or duramycin, same conditions, FIG. 8): of longer duration than other drugs
ISC activation without imposed gradient (CFPAC-1 cell monolayers; symmetrical Ringer's lactate): still present
induced ISC in presence of thapsagargin (CFPAC-1 cell monolayers; thapsagargin 0.1 μM, FIG. 7): had no effect
time to activation of Cl- secretion (CFPAC cells [2]; 20 μm, CF cells): ≤ 5 min
iodide (anion) efflux (CFPAC cells [2]): confers a rapid efflux of iodide; also recorded: strongly activated
anion efflux after removal of extracellular Ca2+ (CFPAC cells [2]; extracellular Ca2+ removed): does not substantially inhibit anion efflux
ISC on top of maximal forskolin activation [3]: augmented the maximal ISC activation
iodide (anion) efflux [4]: strongly activated
cellular cAMP (cellular cAMP): does not increase cellular cAMP
iodide (anion) efflux (T84 cells): strongly activated
ISC activation (mouse intestine; CFTR knock out (−/−) mice, data not shown): ISC activation is also observed
ISC activation (mouse intestine; normal mice, 100 μM, mucosal surface): activates ISC
ISC activation (mouse intestine; ΔF508 CFTR transgenic mice, 100 μM, mucosal surface): activates ISC

Nc1ncnc2c1ncn2[C@@H]1O[C@H](COP(=O)(O)OP(=O)(O)OP(=O)(O)O)[C@@H](O)[C@H]1O [ATP, adenosine triphosphate]
Cl- secretion (CF tissues): shown to activate

CCCn1c(=O)c2[nH]c(C3CCCC3)nc2n(CCC)c1=O [CPX, reference compound]
ISC / transepithelial Cl- secretion (CFPAC-1 cell monolayers; [5]): did not suggest strong Cl^− secretion; also recorded: do not mediate Cl^− secretion
direction of predominant ISC (CFPAC-1 cell monolayers; [5]): opposite to that expected
Cl- efflux (ΔF508 CFTR; NIH 3T3 cells after expression of the ΔF508 protein): could be activated
Cl- efflux (ΔF508 CFTR; airway cells derived from a CF patient (IB3-1-cell line)): could be activated
Cl- efflux (ΔF508 CFTR; human CF pancreatic cells (CFPAC-cell line)): could be activated

C[C@H](CCC(=O)O)C[C@H](C)C[C@H](C)C(=O)/C=C(\O)[C@H](C)C[C@H](C)C/C=C/[C@@H](C)[C@@H](O)[C@@H](C)[C@@H](O)C[C@@H]1CC[C@@](C)([C@H]2CC[C@@](C)([C@@H](C)O)O2)O1 [Ionomycin, reference compound]
iodide (anion) efflux (CFPAC cells [2]): anticipated stimulation of iodide efflux

O=c1ccn([C@@H]2O[C@H](COP(=O)(O)OP(=O)(O)OP(=O)(O)O)[C@@H](O)[C@H]2O)c(=O)[nH]1 [UTP, uridine triphosphate, reference compound]
ISC / transepithelial Cl- secretion (CFPAC-1 cell monolayers; [5]): small, transient activation; also recorded: smaller, transient effect
Cl- secretion (CF tissues): shown to activate

duramycin [reference compound]
ISC / transepithelial Cl- secretion (CFPAC-1 cell monolayers; 5 μm): stronger, although transient, activation
